TGI data for eight molecules are collected here from PubChem BioAssay (NCI).

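Cells were grown in 96-well plates and exposed to each compound for 48 hours at five concentrations; endpoints were interpolated linearly between bracketing concentrations, or set to the highest concentration if not reached. At the TGI there is no net growth.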 Where a SMILES comes first, the peptide text is derived from it. [ ]: non-standard residue; d: D form. ΔPro = O=C(O)[CH]1C=CCN1 Some results are limits rather than exact numbers.

Among the test systems are K-562 leukemia; MALME-3M melanoma; U251 CNS; EKVX NSCLC; SR leukemia; SN12C renal; SW-620 colon; HOP-92 NSCLC; DU-145 prostate; TK-10 renal; MOLT-4 leukemia; HCC-2998 colon; SK-OV-3 ovarian; HS 578T breast; MCF7 breast.
What all share (assay): DTP human tumour cell line panel, 48 h

Usually TGI stands for the concentration at which net growth stops. As for `C=C(Cl)/C(=C\Cl)CCC(Cl)C(C)C` (stereo not given) (tested in a mixture with another compound), the TGI with K-562 leukemia is > 100 µM; in the test on MALME-3M melanoma, 29.2 µM; in the test with U251 CNS, 30.1 µM; in the test on EKVX NSCLC, 33.3 µM; in the test with SR leukemia it was > 100 µM; in the test on SN12C renal, 31.3 µM. Moreover, the TGI with SW-620 colon is 7.5 µM; in the test with HOP-92 NSCLC it was 28.6 µM; in the test with DU-145 prostate, 31.9 µM; in the test on TK-10 renal, 33.9 µM; with MOLT-4 leukemia it was > 100 µM; with HCC-2998 colon it was 32.7 µM. The TGI with SK-OV-3 ovarian is 44.5 µM; in the test on HS 578T breast, 31.9 µM; in the test on MCF7 breast, 26.9 µM.

As for `CC1=NN(c2ccc(S(=O)(=O)O)cc2)C2(C1)C(Cl)C(=O)N2c1nc2ccccc2s1` (stereo not given), the TGI in the test on K-562 leukemia, with MALME-3M melanoma, in the test with U251 CNS, in the test on EKVX NSCLC, with SR leukemia and with SN12C renal was > 100 µM in each case. Also, the TGI in the test with SW-620 colon, in the test with HOP-92 NSCLC, with DU-145 prostate, in the test with TK-10 renal, in the test with MOLT-4 leukemia and with HCC-2998 colon was > 100 µM throughout. In addition, the TGI in the test with SK-OV-3 ovarian, in the test with HS 578T breast and in the test with MCF7 breast was > 100 µM in each case.

Consider `C/C(=C\COP(=O)(O)OP(=O)(O)O)CCCCCCOCc1ccccc1`, for which the TGI with K-562 leukemia, in the test on MALME-3M melanoma, in the test on U251 CNS, with EKVX NSCLC, in the test on SR leukemia and with SN12C renal was > 100 µM throughout. Also, the TGI with SW-620 colon, in the test with HOP-92 NSCLC, in the test with DU-145 prostate, with TK-10 renal, with MOLT-4 leukemia and with HCC-2998 colon was > 100 µM throughout. Besides, the TGI with SK-OV-3 ovarian, with HS 578T breast and in the test with MCF7 breast was > 100 µM throughout.

Regarding `CCCC(=O)OCC1OC(n2cc(F)c(=O)[nH]c2=O)CC1O` (stereo not given), the TGI with K-562 leukemia, in the test with MALME-3M melanoma, in the test on U251 CNS, in the test with EKVX NSCLC, in the test on SR leukemia and in the test on SN12C renal was > 10 µM throughout. The TGI in the test on SW-620 colon is > 10 µM; in the test with HOP-92 NSCLC it was > 10 µM; with DU-145 prostate, > 10 µM; in the test on TK-10 renal it was > 10 µM; with MOLT-4 leukemia it was > 10 µM; in the test with HCC-2998 colon, > 2.97 µM. Also, the TGI in the test with SK-OV-3 ovarian, in the test with HS 578T breast and with MCF7 breast was > 10 µM each time.

For `C=C1c2nc3ccccc3n2C=C(c2ccccc2)N1c1ccc(Cl)cc1`, the TGI was > 100 µM in the test on K-562 leukemia; 51.2 µM with MALME-3M melanoma; > 70.3 µM in the test on U251 CNS; 49.2 µM in the test on EKVX NSCLC; > 100 µM with SR leukemia; > 100 µM in the test on SN12C renal. Moreover, the TGI in the test on SW-620 colon was > 100 µM; with HOP-92 NSCLC, 61.2 µM; in the test with DU-145 prostate it was > 100 µM; in the test on TK-10 renal, 57.2 µM; with MOLT-4 leukemia, > 100 µM; with HCC-2998 colon it was > 100 µM. The TGI in the test on SK-OV-3 ovarian is > 86.7 µM; with HS 578T breast it was > 59.1 µM; with MCF7 breast, > 100 µM.

`COc1ccc(Cc2cc(Cc3ccc(OC)cc3)cc(Cc3ccc(OC)cc3)c2)cc1`: the TGI with K-562 leukemia, with MALME-3M melanoma, in the test on U251 CNS, with EKVX NSCLC, in the test with SR leukemia and in the test on SN12C renal was > 100 µM in each case. Moreover, the TGI in the test with SW-620 colon, in the test on HOP-92 NSCLC, in the test on DU-145 prostate, with TK-10 renal, in the test with MOLT-4 leukemia and with HCC-2998 colon was > 100 µM in each case. The TGI with SK-OV-3 ovarian, in the test with HS 578T breast and in the test on MCF7 breast was > 100 µM in each case.

Regarding `Clc1sc(Cl)c2c1[C@H](Cl)C[C@@H]2Cl`, the TGI in the test on K-562 leukemia was > 100 µM; in the test with MALME-3M melanoma, 59.6 µM; in the test on U251 CNS, 48.2 µM; with EKVX NSCLC, > 100 µM; in the test with SR leukemia it was > 100 µM; in the test with SN12C renal, 50.6 µM. Further, the TGI is 19.6 µM in the test with SW-620 colon; 34.4 µM in the test with HOP-92 NSCLC; 96.9 µM with DU-145 prostate; 85.1 µM in the test with TK-10 renal; > 100 µM in the test with MOLT-4 leukemia; 33.4 µM with HCC-2998 colon. Further, the TGI in the test on SK-OV-3 ovarian is > 100 µM; in the test with HS 578T breast, 44.1 µM; in the test on MCF7 breast it was > 100 µM.

Consider `O=C(O)C1C=CCN1C(=O)C1C=CCN1C(=O)C1C=CCN1` (stereo not given) (H-[ΔPro]-[ΔPro]-[ΔPro]-OH; configuration not given here), for which the TGI in the test with K-562 leukemia, with MALME-3M melanoma, in the test with U251 CNS, in the test on EKVX NSCLC, in the test on SR leukemia and in the test with SN12C renal was > 100 µM throughout. For the same molecule, the concentration for total growth inhibition (TGI) in the test on SW-620 colon, in the test on HOP-92 NSCLC, in the test on DU-145 prostate, in the test on TK-10 renal, with MOLT-4 leukemia and in the test on HCC-2998 colon was > 100 µM in each case. Besides, the TGI in the test on SK-OV-3 ovarian, in the test with HS 578T breast and in the test with MCF7 breast was > 100 µM in each case.
